According to patent US20040249122A1, “Cationic, amphipathic beta-sheet peptides and uses thereof” (priority 2003, published 2004):
Converted amounts (≈) assume the structure as drawn. “Also recorded” adds a separate entry of the source. Where two headings read alike, the source gives them in different places. One block for each compound: values may come before it. Where a SMILES comes first, the peptide text is derived from it.

What was measured:
[1] = test system: Candida albicans (ATCC 14053)
Experimental: (§1) Antimicrobial and Hemolytic Assays. Antimicrobial susceptibility testing against Staphylococcus aureus (ATCC 29213), Escherichia coli (ATCC 25922), and Pseudomonas aeruginosa (ATCC 27853) was performed using a modification of the National Committee for Clinical Laboratory Standards microdilution broth assay (22). Mueller-Hinton broth (BBL) was used for diluting the peptide stock solution and for diluting the bacterial inoculum. The inoculum was prepared from mid-logarithmic phase cultures. Microtiter plate wells received aliquots-of 100 μL each of the inoculum and peptide dilution. The final concentration of peptide solution ranged-from 0.25 to 256 μg/mL in two-fold dilutions. The final concentration of bacteria in the wells was 5×10^5 CFU/mL. Peptides were tested in duplicate. In addition to the test peptide, three standard peptides and a non-treated growth control were included to validate the assay. The microtiter plates were incubated overnight at 37° C. and the absorbance was measured at 600 nm. […] After incubation at 37° C. for 30 min, the suspension was centrifuged at 10,000×g for 10 min and the absorbance at 400 nm was measured. Complete hemolysis was determined by adding 0.2% Triton X-100 in place of the peptide.
Antimicrobial susceptibility testing against Escherichia coli (ATCC 25922), Staphylococcus aureus (ATCC 29213), Pseudomonas aeruginosa (ATCC 27853), and Candida albicans (ATCC 14053) is performed using a modification of the National Committee for Clinical Laboratory Standards microdilution broth assay. Mueller-Hinton broth (BBL) is used for diluting the peptide stock solution and for diluting the bacterial inoculum. The inoculum is prepared from midlogarithmic phase cultures at an approximate concentration of 10^6 CFU/mL. Microtiter plate wells receive aliquots of 0.1 mL each of the inoculum and peptide dilution. The final concentration of the peptide solution ranges from 0.25 to 256 μg/mL in 2-fold dilutions. The microtiter plates are incubated overnight at 37° C.

human erythrocytes = test: Hemolysis of human erythrocytes; format: cell-based
Experimental: as §1, with “Microtiter plate wells received aliquots-of 100 μL each of the inoculum and peptide dilution.” left out, “measured.” for “measured. Complete hemolysis was determined by adding 0.2% Triton X-100 in place of the peptide.”

[2] = test system: Staphylococcus aureus (ATCC 29213); format: cell-based
[3] = test system: Escherichia coli (ATCC 25922); format: cell-based
[4] = test system: Pseudomonas aeruginosa (ATCC 27853); format: cell-based
[5] = Peptide-induced leakage from calcein-loaded LUV
Experimental: Peptide-Induced Leakage from Calcein-Loaded LUV. The ability of the peptides to release calcein (MW 623) from LUV of varying lipid composition was compared. LUV were prepared as above, except that-the buffer consisted of 50 mM HEPES, 100 mM NaCl, 0.3 mM EDTA, 80 mM calcein, pH 7.4. Calcein-loaded vesicles were separated from free calcein by size-exclusion chromatography using a Sephadex G-50 column and calcein-free buffer. Calcein leakage was monitored using a Perkin-Elmer LS-500 luminescence spectrometer by measuring the time-dependent increase in fluorescence of calcein (excitation=490 nm, emission=520 nm). LUV containing 8 nmoles of lipid were added to 1.5 mL of buffer in a stirred cuvet at 25° C. An aliquot of peptide was added to achieve the desired lipid-to-peptide ratio (256 to 8). Complete leakage was determined by the addition of 20 μL of 10% Triton X-100. Each value represents at least nine different measurements using at least three different LUV preparations.

MIC Staph. aureus ([2]; ATCC 29213): 8 µg/mL (≈ 3.88 µM)
MIC E. coli ([3]; ATCC 25922): 8 µg/mL (≈ 3.88 µM)
MIC Pseud. aerug ([4]; ATCC 27853): 32 µg/mL (≈ 15.5 µM)
SMILES: CC[C@H](C)[C@H](NC(=O)[C@H](CCCCN)NC(=O)CNC(=O)[C@H](C)NC(=O)[C@@H](NC(=O)[C@H](CCCCN)NC(=O)[C@H](C)NC(=O)[C@@H](NC(=O)[C@H](CCCCN)NC(=O)CNC(=O)[C@H](C)NC(=O)[C@@H](NC(=O)[C@H](CCCCN)NC(=O)[C@H](C)NC(=O)[C@@H](NC(=O)[C@H](CCCCN)NC(=O)CNC(=O)[C@H](C)NC(=O)[C@@H](NC(=O)[C@@H](N)CCCCN)[C@@H](C)CC)[C@@H](C)CC)[C@@H](C)CC)[C@@H](C)CC)[C@@H](C)CC)C(=O)N[C@@H](C)C(N)=O [(KIAGKIA)3-NH2, KIAGKIAKIAGKIAKIAGKIA -NH2, reference compound] (H-KIAGKIAKIAGKIAKIAGKIA-NH2; N-terminus assumed)
Minimum Inhibitory Concentration, C. albicans ([1]; ATCC 14053): 64 µg/mL
% Hemolysis (500 μg/mL) (human erythrocytes; red cells of human, 500): 9%
Minimum Inhibitory Concentration, S. aureus ([2]; ATCC 29213): 8 µg/mL
Minimum Inhibitory Concentration, E. coli ([3]; ATCC 25922): 8 µg/mL
Minimum Inhibitory Concentration, P. aeruginosa ([4]; ATCC 27853): 32 µg/mL
calcein leakage from LUV (in words) ([5]; 4:1 POPE/POPG LUV): most potent
calcein leakage from LUV (in words) ([5]; POPC (PC) LUV): not very effective

SMILES: CC[C@H](C)[C@H](NC(=O)[C@H](CCCCN)NC(=O)[C@H](C)NC(=O)CNC(=O)[C@@H](NC(=O)[C@H](CCCCN)NC(=O)[C@@H](NC(=O)[C@H](CCCCN)NC(=O)[C@H](C)NC(=O)CNC(=O)[C@@H](NC(=O)[C@H](CCCCN)NC(=O)[C@@H](NC(=O)[C@H](CCCCN)NC(=O)[C@H](C)NC(=O)CNC(=O)[C@@H](NC(=O)[C@@H](N)CCCCN)[C@@H](C)CC)[C@@H](C)CC)[C@@H](C)CC)[C@@H](C)CC)[C@@H](C)CC)C(N)=O [(KIGAKI)3-NH2, K I G A K I K I G A K I K I G A K I -NH2] (H-KIGAKIKIGAKIKIGAKI-NH2)
Minimum Inhibitory Concentration, C. albicans ([1]; Table 2): 64 µg/mL
% Hemolysis (500 μg/mL) (human erythrocytes; 500 μg/mL peptide, 5% human erythrocytes, 37° C., 30 min): 3%
Minimum Inhibitory Concentration, S. aureus ([2]; Table 2, overnight at 37° C.): 16 µg/mL
MIC Staph. aureus ([2]; Table 4): 8 µg/mL (≈ 4.33 µM)
Minimum Inhibitory Concentration, E. coli ([3]; Table 2, overnight at 37° C.): 8 µg/mL
MIC E. coli ([3]; Table 4): 8 µg/mL (≈ 4.33 µM)
Minimum Inhibitory Concentration, P. aeruginosa ([4]; Table 2, overnight at 37° C.): 32 µg/mL
MIC Pseud. aerug ([4]; Table 4): 32 µg/mL (≈ 17.3 µM)
calcein leakage from LUV (in words) ([5]; 4:1 POPE/POPG LUV): most potent
calcein leakage from LUV (in words) ([5]; POPC (PC) LUV): not very effective; also recorded: low lytic activity
calcein leakage from LUV (in words) ([5]; POPC/POPG LUV, all ratios (1:1 to 4:1)): least potent

SMILES: CC(C)C[C@H](NC(=O)CNC(=O)[C@H](C)NC(=O)[C@H](CC(C)C)NC(=O)[C@H](CCCCN)NC(=O)[C@H](CCCCN)NC(=O)[C@H](C)NC(=O)[C@H](CC(C)C)NC(=O)CNC(=O)[C@H](C)NC(=O)[C@H](CC(C)C)NC(=O)[C@H](CCCCN)NC(=O)[C@H](CCCCN)NC(=O)[C@H](C)NC(=O)[C@H](CC(C)C)NC(=O)CNC(=O)[C@H](C)NC(=O)[C@H](CC(C)C)NC(=O)[C@@H](N)CCCCN)C(=O)N[C@@H](C)C(=O)N[C@@H](CCCCN)C(N)=O [(KLAGLAK)3-NH2, KLAGLAKKLAGLAKKLAGLAK -NH2] (H-KLAGLAKKLAGLAKKLAGLAK-NH2)
Minimum Inhibitory Concentration, C. albicans ([1]; ATCC 14053): 64 µg/mL
% Hemolysis (500 μg/mL) (human erythrocytes; red cells of human, 500): 9%
Minimum Inhibitory Concentration, S. aureus ([2]; ATCC 29213): 16 µg/mL
Minimum Inhibitory Concentration, E. coli ([3]; ATCC 25922): 8 µg/mL
Minimum Inhibitory Concentration, P. aeruginosa ([4]; ATCC 27853): 128 µg/mL

SMILES: CC[C@H](C)[C@H](NC(=O)CN)C(=O)NCC(=O)N[C@@H](CCCCN)C(=O)N[C@@H](Cc1ccccc1)C(=O)N[C@@H](CC(C)C)C(=O)N[C@@H](Cc1c[nH]cn1)C(=O)N[C@@H](CO)C(=O)N[C@@H](C)C(=O)N[C@@H](CCCCN)C(=O)N[C@@H](CCCCN)C(=O)N[C@@H](Cc1ccccc1)C(=O)NCC(=O)N[C@@H](CCCCN)C(=O)N[C@@H](C)C(=O)N[C@@H](Cc1ccccc1)C(=O)N[C@H](C(=O)NCC(=O)N[C@@H](C)C(=O)N[C@H](C(=O)N[C@@H](CCSC)C(=O)N[C@@H](CC(N)=O)C(=O)N[C@@H](CO)C(N)=O)[C@@H](C)CC)C(C)C [A19-Magainin 2-NH2, reference compound] (H-GIGKFLHSAKKFGKAFVGAIMNS-NH2)
Minimum Inhibitory Concentration, C. albicans ([1]; ATCC 14053): 128 µg/mL
% Hemolysis (500 μg/mL) (human erythrocytes; red cells of human, 500): 29%
Minimum Inhibitory Concentration, S. aureus ([2]; ATCC 29213): 64 µg/mL
Minimum Inhibitory Concentration, E. coli ([3]; ATCC 25922): 8 µg/mL
Minimum Inhibitory Concentration, P. aeruginosa ([4]; ATCC 27853): 16 µg/mL

SMILES: CC[C@H](C)[C@H](NC(=O)CN)C(=O)NCC(=O)N[C@@H](CCCCN)C(=O)N[C@@H](Cc1ccccc1)C(=O)N[C@@H](CC(C)C)C(=O)N[C@@H](CCCCN)C(=O)N[C@@H](CCCCN)C(=O)N[C@@H](C)C(=O)N[C@@H](CCCCN)C(=O)N[C@@H](CCCCN)C(=O)N[C@@H](Cc1ccccc1)C(=O)NCC(=O)N[C@@H](CCCCN)C(=O)N[C@@H](C)C(=O)N[C@@H](Cc1ccccc1)C(=O)N[C@H](C(=O)N[C@@H](CCCCN)C(=O)N[C@H](C(=O)N[C@@H](CC(C)C)C(=O)N[C@@H](CCCCN)C(=O)N[C@@H](CCCCN)C(N)=O)[C@@H](C)CC)C(C)C [MSI-78, reference compound] (H-GIGKFLKKAKKFGKAFVKILKK-NH2)
Minimum Inhibitory Concentration, C. albicans ([1]; ATCC 14053): 64 µg/mL
% Hemolysis (500 μg/mL) (human erythrocytes; red cells of human, 500): 9%
Minimum Inhibitory Concentration, S. aureus ([2]; ATCC 29213): 8 µg/mL
Minimum Inhibitory Concentration, E. coli ([3]; ATCC 25922): 8 µg/mL
Minimum Inhibitory Concentration, P. aeruginosa ([4]; ATCC 27853): 4 µg/mL

SMILES: CC[C@H](C)[C@H](NC(=O)CN)C(=O)NCC(=O)N[C@@H](CCCCN)C(=O)N[C@@H](Cc1ccccc1)C(=O)N[C@@H](CC(C)C)C(=O)N[C@@H](Cc1c[nH]cn1)C(=O)N[C@@H](CO)C(=O)N[C@@H](C)C(=O)N[C@@H](CCCCN)C(=O)N[C@@H](CCCCN)C(=O)N[C@@H](Cc1ccccc1)C(=O)NCC(=O)N[C@@H](CCCCN)C(=O)N[C@@H](C)C(=O)N[C@@H](Cc1ccccc1)C(=O)N[C@H](C(=O)NCC(=O)N[C@@H](CCC(=O)O)C(=O)N[C@H](C(=O)N[C@@H](CCSC)C(=O)N[C@@H](CC(N)=O)C(=O)N[C@@H](CO)C(N)=O)[C@@H](C)CC)C(C)C [Magainin 2-NH2, GIGKFLHSAKKFGKAFVGEIMNS -NH2, reference compound] (H-GIGKFLHSAKKFGKAFVGEIMNS-NH2)
Minimum Inhibitory Concentration, C. albicans ([1]; ATCC 14053): >256 µg/mL
% Hemolysis (500 μg/mL) (human erythrocytes; red cells of human, 500): 2%
Minimum Inhibitory Concentration, S. aureus ([2]; ATCC 29213): 256 µg/mL
Minimum Inhibitory Concentration, E. coli ([3]; ATCC 25922): 64 µg/mL
Minimum Inhibitory Concentration, P. aeruginosa ([4]; ATCC 27853): 256 µg/mL
